Test results published in patent publication US20130338574A1, “ORAL MEDICINAL COMPOSITION FOR PATIENTS UNDERGOING PERITONEAL DIALYSIS AND METHOD FOR USING SAME” (TOKAI UNIVERSITY EDUCATIONAL SYSTEM, priority 2010, published 2013).

How the values were obtained:
[1] = Stability of pyridoxamine in peritoneal dialysis fluid (HPLC); assay type: physicochemical; conditions: for peak height of pyridoxamine measured by HPLC / rate of peak height of pyridoxamine to first measurement day: 5 μg/ml
Source text: • Peritoneal dialysis fluid: Dianeal (registered trademark)-N PD-4-1.5 (Baxter Limited) • Pyridoxamine dihydrochloride (Wako Pure Chemical Industries, Ltd.)
The above peritoneal dialysis fluid is composed of an acid solution containing glucose (pH 3.5 to 4.5) and an alkaline solution containing an electrolyte, such as sodium lactate (pH 7.0 to 7.7), which are respectively placed in upper and lower compartments of a two-compartment container divided by an openable partition. When peritoneal dialysis treatment is performed on a chronic renal failure patient, the partition is opened between the upper and lower compartments so that both solutions are mixed, and the mixture is used after its pH is adjusted to a neutral range (pH 6.5 to 7.5).
The glucose-containing solution (pH 4.15) in the upper compartment of the peritoneal dialysis fluid bag, the electrolyte solution (pH 7.02) in the lower compartment, and the mixture of the upper and lower compartment solutions (pH 6.76) were used as solvents, and 5 μg/ml of pyridoxamine dihydrochloride was dissolved in each solvent to obtain test samples. The test samples were left for three weeks at room temperature (25±5° C.), which was almost the same condition that renal failure patients generally store. During that period, sampling was conducted with time, and the amount of pyridoxamine contained in each test sample was measured.
The amount of pyridoxamine contained in the test samples was measured by high-performance liquid chromatography (HPLC) under the following conditions.
High-performance liquid chromatography: Shimadzu Corporation
Mobile phase: 0.1% trifluoroacetic acid-containing aqueous solution
Stationary phase: C18 column (Develosil), 4.6×150 mm, 5 μm; Nomura Chemical Co., Ltd.)
Detection: UV detection of absorbance at a wavelength of 294 nm (UV detector: Shimadzu Corporation)

[2] = Transfer of pyridoxamine into blood and peritoneal cavity after oral administration to uremic rat models; assay type: in vivo, Sprague-Dawley male rats; conditions: oral 30 mg/rat/day, 7 days
Source text: The uremic rat models were produced using 7-week-old (body weight: 300 g or less) Sprague-Dawley male rats (CLEA Japan, Inc.) by the method described in NPL 27 and NPL 28. More specifically, the above rats were first subjected to 1/3 nephrectomy under anesthesia, and then to 1/2 nephrectomy after a week, thereby producing 5/6 nephrectomy rats (rats with kidney subtotal excision). These rats were allowed to freely take a standard diet for experimental rats (containing 1.06% calcium, 0.9% phosphate, and 21% protein; CE2: CLEA Japan, Inc.) and tap water until the eve of slaughter.
The kidney subtotal excision rats with chronic renal failure (uremic rat models) produced in the above manner were separated into two groups (each group: n=3). Distilled water for injection (Otsuka Pharmaceutical Co., Ltd.; here and below) was orally administered compulsorily to Group 1 (control group) once a day, while a pyridoxamine salt aqueous solution prepared by dissolving 30 mg of pyridoxamine dihydrochloride (Sigma; here and below) in 2 mL of distilled water for injection was orally administered compulsorily to Group 2 (pyridoxamine salt orally administered group) once a day. On the 6th day of administration, after distilled water for injection and the pyridoxamine salt aqueous solution were orally administered, respectively, to Groups 1 and 2, 20 ml of a peritoneal dialysis fluid (pH 4.5 to 5.5) (trade name: Dianeal (registered trademark) PD-4 4.25; Baxter Limited) was injected intraperitoneally to both groups.
Subsequently, on the 7th day of administration, as normal, distilled water for injection was orally administered compulsorily to Group 1, and the pyridoxamine salt aqueous solution was orally administered compulsorily to Group 2. […]
When the quantitative analysis of pyridoxamine and dicarbonyl compounds (3-deoxyglucosone) in the samples was performed by liquid chromatography (HPLC), the above frozen test samples (serum and intraperitoneal fluid) were used after natural thawing at room temperature.
First, 50 μL of each test sample (serum and intraperitoneal fluid) was taken in a test tube. […] Subsequently, the mixture was subjected to centrifugation at 12,000 rpm at 4° C. for 10 minutes to precipitate proteins, and the supernatant was then collected for use as a sample for pyridoxamine quantitative analysis by HPLC.
The quantitative analysis of pyridoxamine was carried out under the HPLC conditions described in Experimental Example 1 (2). The quantitative analysis was performed using a standard calibration curve previously prepared by measurement under the above HPLC conditions using standard solutions of pyridoxamine of known concentrations.

[3] = lower-compartment solution (pH 7.02), room temperature, 1st day, time 0
[4] = lower-compartment solution (pH 7.02), room temperature, 2nd day, time 24
[5] = lower-compartment solution (pH 7.02), room temperature, 6th day, time 120
[6] = lower-compartment solution (pH 7.02), room temperature, 7th day, time 144
[7] = lower-compartment solution (pH 7.02), room temperature, 8th day, time 168
[8] = lower-compartment solution (pH 7.02), room temperature, 10th day, time 216
[9] = lower-compartment solution (pH 7.02), room temperature, 15th day, time 336
[10] = lower-compartment solution (pH 7.02), room temperature, 21st day, time 480
[11] = peritoneal dialysis fluid mixture (pH 6.76), room temperature, 1st day, time 0
[12] = peritoneal dialysis fluid mixture (pH 6.76), room temperature, 2nd day, time 24
[13] = peritoneal dialysis fluid mixture (pH 6.76), room temperature, 6th day, time 120
[14] = peritoneal dialysis fluid mixture (pH 6.76), room temperature, 7th day, time 144
[15] = peritoneal dialysis fluid mixture (pH 6.76), room temperature, 8th day, time 168
[16] = peritoneal dialysis fluid mixture (pH 6.76), room temperature, 10th day, time 216
[17] = peritoneal dialysis fluid mixture (pH 6.76), room temperature, 15th day, time 336
[18] = peritoneal dialysis fluid mixture (pH 6.76), room temperature, 21st day, time 480
[19] = upper-compartment solution (pH 4.15), room temperature, 1st day, time 0
[20] = upper-compartment solution (pH 4.15), room temperature, 2nd day, time 24
[21] = upper-compartment solution (pH 4.15), room temperature, 6th day, time 120
[22] = upper-compartment solution (pH 4.15), room temperature, 7th day, time 144
[23] = upper-compartment solution (pH 4.15), room temperature, 8th day, time 168
[24] = upper-compartment solution (pH 4.15), room temperature, 10th day, time 216
[25] = upper-compartment solution (pH 4.15), room temperature, 15th day, time 336
[26] = upper-compartment solution (pH 4.15), room temperature, 21st day, time 480
[27] = within an hour after last administration, Dianeal PD-4 4.25 i.p. on 6th day

Q: With `Cc1ncc(CO)c(CN)c1O.Cl.Cl` [pyridoxamine dihydrochloride, Pyridoxamine dihydrochloride] as the compound, how does the “peak height of pyridoxamine measured by HPLC” value (“peak height … by HPLC” below) [1, 3] read?
A: The value was 13265.

Q: What about the “rate of peak height of pyridoxamine to first measurement day” value (shortened to “rate of peak height of pyridoxamine”) [1, 3] of the same compound?
A: Its value is 100%.

Q: What about the “peak height … by HPLC” value [1, 4] of the same compound?
A: Its value is 12959.

Q: And the “rate of peak height of pyridoxamine” value [1, 4]?
A: The value was 98%.

Q: What about the “peak height … by HPLC” value [1, 5] of the same compound?
A: Its value is 13029.

Q: And the “rate of peak height of pyridoxamine” value [1, 5]?
A: Its value is 98%.

Q: And the “peak height … by HPLC” value [1, 6]?
A: The value was 12800.

Q: What about the “rate of peak height of pyridoxamine” value [1, 6] of the same compound?
A: The value was 96%.

Q: And the “peak height … by HPLC” value [1, 7]?
A: The value was 12206.

Q: What about the “rate of peak height of pyridoxamine” value [1, 7] of the same compound?
A: Its value is 92%.

Q: What about the “peak height … by HPLC” value [1, 8] of the same compound?
A: Its value is 11887.

Q: And the “rate of peak height of pyridoxamine” value [1, 8]?
A: The value was 90%.

Q: And the “peak height … by HPLC” value [1, 9]?
A: Its value is 11342.

Q: And the “rate of peak height of pyridoxamine” value [1, 9]?
A: Its value is 86%.

Q: And the “peak height … by HPLC” value [1, 10]?
A: Its value is 10505.

Q: And the “rate of peak height of pyridoxamine” value [1, 10]?
A: Its value is 79%.

Q: And the “peak height … by HPLC” value [1, 11]?
A: The value was 11061.

Q: What about the “rate of peak height of pyridoxamine” value [1, 11] of the same compound?
A: The value was 100%.

Q: And the “peak height … by HPLC” value [1, 12]?
A: The value was 9991.

Q: What about the “rate of peak height of pyridoxamine” value [1, 12] of the same compound?
A: Its value is 90%.

Q: And the “peak height … by HPLC” value [1, 13]?
A: The value was 10323.

Q: What about the “rate of peak height of pyridoxamine” value [1, 13] of the same compound?
A: The value was 93%.

Q: What about the “peak height … by HPLC” value [1, 14] of the same compound?
A: The value was 9821.

Q: And the “rate of peak height of pyridoxamine” value [1, 14]?
A: The value was 89%.

Q: What about the “peak height … by HPLC” value [1, 15] of the same compound?
A: Its value is 9924.

Q: And the “rate of peak height of pyridoxamine” value [1, 15]?
A: Its value is 90%.

Q: What about the “peak height … by HPLC” value [1, 16] of the same compound?
A: Its value is 9612.

Q: What about the “rate of peak height of pyridoxamine” value [1, 16] of the same compound?
A: Its value is 87%.

Q: What about the “peak height … by HPLC” value [1, 17] of the same compound?
A: The value was 9429.

Q: And the “rate of peak height of pyridoxamine” value [1, 17]?
A: Its value is 85%.

Q: And the “peak height … by HPLC” value [1, 18]?
A: Its value is 6322.

Q: And the “rate of peak height of pyridoxamine” value [1, 18]?
A: The value was 57%.

Q: And the “pyridoxamine content relative to original content” value ([1]; upper-compartment and lower-compartment solutions before mixing, room temperature, within three weeks)?
A: The value was 70%.

Q: And the “peak height … by HPLC” value [1, 19]?
A: Its value is 14051.

Q: What about the “rate of peak height of pyridoxamine” value [1, 19] of the same compound?
A: The value was 100%.

Q: And the “peak height … by HPLC” value [1, 20]?
A: Its value is 13271.

Q: What about the “rate of peak height of pyridoxamine” value [1, 20] of the same compound?
A: Its value is 94%.

Q: And the “peak height … by HPLC” value [1, 21]?
A: Its value is 13084.

Q: What about the “rate of peak height of pyridoxamine” value [1, 21] of the same compound?
A: The value was 93%.

Q: And the “peak height … by HPLC” value [1, 22]?
A: Its value is 13316.

Q: What about the “rate of peak height of pyridoxamine” value [1, 22] of the same compound?
A: The value was 95%.

Q: And the “peak height … by HPLC” value [1, 23]?
A: The value was 11561.

Q: And the “rate of peak height of pyridoxamine” value [1, 23]?
A: Its value is 82%.

Q: What about the “peak height … by HPLC” value [1, 24] of the same compound?
A: The value was 12139.

Q: What about the “rate of peak height of pyridoxamine” value [1, 24] of the same compound?
A: Its value is 86%.

Q: What about the “peak height … by HPLC” value [1, 25] of the same compound?
A: Its value is 11518.

Q: What about the “rate of peak height of pyridoxamine” value [1, 25] of the same compound?
A: The value was 82%.

Q: And the “peak height … by HPLC” value [1, 26]?
A: The value was 10605.

Q: And the “rate of peak height of pyridoxamine” value [1, 26]?
A: Its value is 75%.

Q: What about the “stability of pyridoxamine in the peritoneal dialysis fluid” value ([1]; upper-compartment solution, lower-compartment solution and mixture, left for three weeks) of the same compound?
A: The value was “unstable”.

Q: What about the “Pyridoxamine amount in intraperitoneal fluid” value ([2]; amount in 20.8 ml of collected intraperitoneal fluid) of the same compound?
A: The value was 321 µg.

Q: What about the “pyridoxamine concentration in the intraperitoneal cavity, Group 2 relative to Group 1 (control)” value [2] of the same compound?
A: The value was ≥ 65 times.

Q: What about the “Pyridoxamine concentration in intraperitoneal fluid” value [2, 27] of the same compound?
A: The value was 14.7 µg/mL.

Q: What about the “Pyridoxamine concentration in serum” value [2, 27] of the same compound?
A: Its value is 13.8 µg/mL.
